Experimental data as given in US12091402B2 (Avilar Therapeutics, Inc., priority 2021, dated 2024).

Experiments:
[1] = target: T1, TNF (Homo sapiens, UniProt P01375); assay: Western blot of TNF degradation over time (Example 11, FIG. 24); type: cell-based; conditions: 0.5 μM compound
[2] = target: T2, ASGPR (Homo sapiens, UniProt P07306); assay: Affinity to ASGPR by surface plasmon resonance (SPR)
T2 sequence (P07306 1-291): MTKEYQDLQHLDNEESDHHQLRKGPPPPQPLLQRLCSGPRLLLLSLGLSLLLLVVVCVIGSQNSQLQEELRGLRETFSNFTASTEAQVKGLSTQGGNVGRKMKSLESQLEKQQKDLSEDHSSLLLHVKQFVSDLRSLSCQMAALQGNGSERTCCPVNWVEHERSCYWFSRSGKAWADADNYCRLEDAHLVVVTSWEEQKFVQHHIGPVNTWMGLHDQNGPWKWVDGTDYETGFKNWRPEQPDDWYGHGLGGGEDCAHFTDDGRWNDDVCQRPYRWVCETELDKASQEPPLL
Protocol: Biotinylated ASGPR (20 μg/ml) was immobilized on SA sensor chips (GE Healthcare) at flow rate of 5 μl/min for 90 sec reaching an immobilization level ranging from 500-3000 resonance units (RU). The running buffer was 50 mM HEPES, pH7.5, 150 mM NaCl, 50 mM CaCl2), 0.01% P20, 3% DMSO. The concentration of compounds vary from 2 mM to 5 nM depending on Kd values. The compounds are diluted 2 or 3-fold with 8 concentration points. Solutions containing serially diluted compounds are injected at a flow rate of 40 μL/min for 150-300 sec followed by a 90-300 sec dissociation phase for each concentration. The surface was regenerated using 50 mM HEPES, pH 7.5, 150 mM NaCl, 5 mM EDTA, 0.01% P20, 3% DMSO.
Data was processed using the analysis software in Biacore 8K to perform background subtraction, double referencing, and solvent correction. Values of affinity expressed as the dissociation constants (Kd) were determined by fitting the steady state binding responses (RUs) as a function of the concentration ([Compound]) using the following equation: RU=RUmax/(KD+[Compound]), where RU max is the calculated maximal response. Where appropriate double-referenced data were fit to using a 1:1 binding model for kinetic analysis.

[3] = target: TNFα (Homo sapiens, UniProt P01375); assay: TNF FP assay; type: binding; conditions: TNF 20 nM, 25° C., 2 hours; read-out: TNFα FP IC50 KD
Protocol: TNF (20 nM) and Compound 36 in 47 mM HEPES pH 6.5, 47 mM NaCl, 0.9 mM EDTA, 0.007% Triton X-100 were incubated at 25° C. for 2 hours. Fluorescence data was read with an Envision and plotted versus Compound 36 concentration and fit to a single-site binding model. This assay was used to calculate the FP data in Table 7.

[4] = target: T1, TNF; assay: Western blot of ASGPR mediated uptake of TNF (Example 12, FIG. 25); type: cell-based
[5] = test system: IgG-AF488; assay: Western blot of IgG-AF488 degradation (Example 5, FIG. 10); type: cell-based
[6] = test system: DNP-IgG; assay: Colocalization imaging of DNP-IgG uptake (Example 4, FIG. 11); type: cell-based
[7] = test system: HepG2 cells; assay: Cellular degradation assay of anti-DNP-AF488 antibody; type: cell-based; conditions: 0.2 μM compound, 1 μM anti-DNP-AF488, 16 hours uptake then wash, FIG. 3
Protocol: To observe degradation of IgG in cells, a mixture of fluorescently labeled DNP antibody and compound are added to HepG2 cells and cellular uptake occurs over 16 hours. Cells are then washed to remove extracellular antibody and compound and samples are taken at various time points after uptake to detect levels of intact and/or proteolytic fragments of the antibody heavy and light chains over time as a kinetic measurement of antibody degradation.
HepG2 cells were seeded in DMEM supplemented with 10% FBS into a 12-well plate at a final amount of 20,000 cells per well. After about 18 hours incubation, 1 μM anti-DNP-AF488 antibody and/or 0.2 μM Compound 28 was added to the cells and incubated for 16 hours. The next day, cells were washed once with cell culture media and replaced with cell culture medium lacking anti-DNP-AF488 antibody or Compound 28 and incubated for 0, 1, 2, 4, and 8 hours, respectively. Cells were washed and lysed in RIPA buffer with protease inhibitors. Cell lysates were separated by SDS-PAGE and the fluorescent anti-DNP-AF488 antibody degradation products were visualized by the iBright 1500 gel reader (ThermoFisher). Intracellular heavy and light chains of DNP-IgG are observed after 16 hours of uptake into HepG2 cells. […]

[8] = target: T3, ASGPR receptor on the cell surface (HepG2 cells) (Homo sapiens, UniProt P07306); assay: Ternary complex formation assay (flow cytometry, HepG2); type: cell-based; conditions: HepG2 cells
T3 construct: host or cells: HepG2
T3 sequence (P07306 1-291): T2 sequence (P07306 1-291)
T3 sequence (P07307 1-311 partner): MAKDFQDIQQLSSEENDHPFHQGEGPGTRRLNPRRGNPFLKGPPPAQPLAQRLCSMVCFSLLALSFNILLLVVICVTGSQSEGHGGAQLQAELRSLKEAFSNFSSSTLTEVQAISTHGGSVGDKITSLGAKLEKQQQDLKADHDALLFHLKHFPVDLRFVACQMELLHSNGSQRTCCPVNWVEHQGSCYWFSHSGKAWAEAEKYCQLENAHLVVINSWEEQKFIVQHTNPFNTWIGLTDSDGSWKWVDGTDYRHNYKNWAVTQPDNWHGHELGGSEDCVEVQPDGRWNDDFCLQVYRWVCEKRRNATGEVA
How it was run: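 HepG2 cells (1×10^5/well) incubated 1 h at 4 °C with 100 nM AF488-labeled anti-human IgG plus serial IgG-based degrader, or 100 nM AF488 rabbit anti-DNP plus serial DNP-based degrader. After washing, cell-associated AF488 MFI read by flow cytometry; peak MFI marks optimal degrader concentration for ternary complex.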

[9] = test system: HepG2 cells; assay: Cellular co-localization study (LAMP2 immunofluorescence); type: cell-based; conditions: 100 nM compound, 100 nM AF488-labeled DNP antibodies, 8 hours, FIG. 4
Protocol: To confirm that DNP-IgG was trafficked to the lysosome following uptake by the HepG2 cells, cells were stained with the lysosomal marker LAMP2, and the subcellular location of AF488-labeled DNP-IgG was visualized by immunofluorescence microscopy.
HepG2 cells were plated in DMEM supplemented with 10% FBS incubated for approximately 18 hours at 37° C./5% CO2. AF488-labeled DNP antibodies (100 nM) and either DMSO or 100 nM of Compound 28 were added to the cells and incubated at 37° C. for an additional 8 hours. Cells were fixed with 100% methanol for 20 minutes at −20° C. followed by incubation with blocking buffer (1×PBS containing 5% normal goat serum and 0.1% Triton X-100) for 1 hour at room temperature. Cells were stained with anti-LAMP2 (Abcam) at 4° C. for about 18 hours followed by treatment with goat anti-mouse IgG-AF647 for 2 hours at room temperature. Nuclei were stained with DAPI. Pictures were taken on a Leica fluorescence microscope at 40× magnification.

[10] = test system: HepG2 cells; assay: Cellular uptake assay of AF488-labeled antibody (HepG2); type: cell-based
How it was run: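 Ternary-complex uptake via ASGPR was imaged after fixation: the read-out is AF488-positive HepG2 cells divided by total DAPI nuclei. Degrader dilutions (IgG- or DNP-based, 0.1% DMSO final) were co-incubated 6 h at 37° C. with 100 nM of the corresponding fluorescent antibody.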

T1 sequence (P01375 77-233 limits assumed): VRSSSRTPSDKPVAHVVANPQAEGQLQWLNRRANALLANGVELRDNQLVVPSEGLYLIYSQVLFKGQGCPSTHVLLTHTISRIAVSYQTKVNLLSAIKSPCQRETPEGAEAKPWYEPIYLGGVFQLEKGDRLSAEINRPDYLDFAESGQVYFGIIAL
TNFα, sequence (P01375 77-233 limits assumed): as above

| degradation of TNF over time (western blot) [1] | ASGPR kd ([2]; Table 7) [s⁻¹] | IC50 [3] [nM] | ASGPR mediated uptake of TNF (western blot) [4] | Compound | Kd [2] [nM] | degradation of IgG-AF488 (western blot) [5] | uptake of DNP-IgG (colocalization image) [6] | Loss of intact heavy chain of DNP-IgG observed after [7] [h] | Loss of intact light chain of DNP-IgG observed after [7] [h] | EC50 ([8]; EC50, half-maximal concentration with respect to the peak MFI (ternary complex formation), AF488-labeled DNP antibody, FIG. 1) [nM] | EC50 ([8]; Ternary Complex EC50 (nM), 100 nM AF488-labeled antibody, 1 hour at 4° C., class symbols) [nM] | Uptake of DNP-IgG and co-localization with lysosomal marker LAMP2 [9] | EC50, half-maximal concentration with respect to the peak ratio of antibody-positive cells (cellular uptake) ([10]; DNP-antibody, HepG2 cells, FIG. 2) [nM] | EC50 ([10]; Homo sapiens, HepG2, 6 h, read-out: Uptake Assay EC50 (nM)) [nM] |
| --- | --- | --- | --- | --- | --- | --- | --- | --- | --- | --- | --- | --- | --- | --- |
| degradation of TNF | <0.01 | < 500 | ASGPR mediated uptake of TNF | O=C(CCOCC(COCCC(=O)NCCOCCOCCOCCOC[C@H]1OC[C@H](Nc2nccc(C(F)(F)F)n2)[C@@H](O)[C@H]1O)NC(=O)COCCOCCOCC(=O)N1CCN(Cc2ccc(-c3c[nH]c4ccncc34)c(OCCc3ccc(-c4cccc5ccncc45)cc3)c2)CC1)NCCOCCOCCOCCOC[C@H]1OC[C@H](Nc2nccc(C(F)(F)F)n2)[C@@H](O)[C@H]1O [Compound 36, 3,3′-((2-(2-(2-(2-(2-(4-(3-(4-(isoquinolin-8-yl)phenethoxy)-4-(1H-pyrrolo[3,2-c]pyridin-3-yl)benzyl)piperazin-1-yl)-2-oxoethoxy)ethoxy)ethoxy)acetamido)propane-1,3-diyl)bis(oxy))bis(N-(1-((2R,3R,4R,5S)-3,4-dihydroxy-5-((4-(trifluoromethyl)pyrimidin-2-yl)amino)tetrahydro-2H-pyran-2-yl)-2,5,8,11-tetraoxatridecan-13-yl)propanamide)] | < 1 |  |  |  |  |  |  |  |  |  |
|  |  |  |  | O=C(CCOCC(COCCC(=O)NCCOCCOCCOCCOC[C@H]1OC[C@@H](Nc2nc(Cl)ns2)[C@@H](O)[C@H]1O)NC(=O)COCCOCCOCCNc1ccc([N+](=O)[O-])cc1[N+](=O)[O-])NCCOCCOCCOCCOC[C@H]1OC[C@@H](Nc2nc(Cl)ns2)[C@@H](O)[C@H]1O [Compound 28, 3,3′-((2-(2-(2-(2-(2-((2,4-dinitrophenyl)amino)ethoxy)ethoxy)ethoxy)acetamido)propane-1,3-diyl)bis(oxy))bis(N-(1-((2R,3R,4R,5R)-5-((3-chloro-1,2,4-thiadiazol-5-yl)amino)-3,4-dihydroxytetrahydro-2H-pyran-2-yl)-2,5,8,11-tetraoxatridecan-13-yl)propanamide)] | < 100 | degradation of IgG-AF488 | uptake of DNP-IgG | 1 | 8 | 4.7 | < 100 | DNP-IgG was taken up into the cells and co-localized with the lysosomal marker LAMP2 | 3.8 | < 100 |
